Reference: patent US8293682B2, “Growth regulators for gramineous weeds” (Rikengreen Co., Ltd., priority 2008, dated 2012)

Assays:
[1] = tested on: annual bluegrass (Poa annua L.); test: Test Example 3: number of emerged ears and leaves, poly-cup, two applications; type: in vivo; conditions: for Ear (number of emerged ears in the cup) / [Leaf] (number of leaves within 6 cm×6 cm): 2nd application after 29 days
Procedure: At the initial stage of the ear emergence of annual bluegrass (Poa annua L.) grown in a poly-cup of 11 cm×11 cm, benzyladenine (Beanine for painting; made by Rikengreen; containing 1% benzyladenine) and ethephon (Ethrel 10 soluble concentrate; Nissan Chemical Industries; containing 10% ethephon) were diluted in a predetermined amount of water, and a spreader (Riken Sprayzer (registered trade mark); made by Rikengreen) was added so as to be 1/1,000-fold concentration; the respectively diluted solutions were applied by atomization at a dose as indicated in Table (scattered solution: 200 mL/m^2), and after a lapse of 29 days, the 2nd application was carried out. Then, the number of emerged ears of annual bluegrass (Poa annua L.) in the cup was counted. Further, the number of leaves [Leaf] of annual bluegrass (Poa annua L.) was counted within the area of 6 cm×6 cm in the cup. The test was carried out serially. […] Dose means the amount at a single application.

[2] = tested on: annual bluegrass (Poa annua L.); test: Test Example 2: count of ear emergence, poly-cup, applications at intervals / alternate application; type: in vivo
Procedure: At the initial stage of the ear emergence of annual bluegrass (Poa annua L.) grown in a poly-cup of 11 cm×11 cm, benzyladenine (Beanine for painting; made by Rikengreen; containing 1% benzyladenine) and/or ethephon (Ethrel 10 soluble concentrate; Nissan Chemical Industries; containing 10% ethephon) were diluted in a predetermined amount of water, and a spreader (Riken Sprayzer (registered trade mark); made by Rikengreen) was added so as to be 1/1,000-fold concentration; the respectively diluted solutions were applied by atomization at a dose and intervals as indicated in Table (scattered solution: 200 mL/m^2), and the number of emerged ears of annual bluegrass (Poa annua L.) in the cup was counted through time. The test was carried out serially. […] The symbol “●” in Table indicates the treatment with benzyladenine, “◯” the treatment with ethephon, and “−” untreated. Dose means the amount at a single application.

[3] = tested on: lawn grasses; conditions: cited from earlier work
[4] = tested on: annual bluegrass (Poa annua L.); test: Test Example 4: field test in bent green turf, emerged ear number; type: in vivo; conditions: applied Day 0 and after 30 days
Procedure: In a bent green turf where annual bluegrasses (Poa annua L.) were grown, a test zone of 1 m×1 m was provided. Benzyladenine (Beanine for painting; made by Rikengreen; containing 1% benzyladenine) and ethephon (Ethrel 10 soluble concentrate; Nissan Chemical Industries; containing 10% ethephon) were diluted in a predetermined amount of water, and a spreader (Riken Sprayzer (registered trade mark); made by Rikengreen) was added so as to be 1/1,000-fold concentration. The respectively diluted solutions were applied to each test zone at the first application (Day 0) at a dose as indicated in Table, and after a lapse of 30 days the second application was carried out. The amount of solution scattered was 100 mL/m^2 both in the first and second applications. The number of ear emergence of annual bluegrass (Poa annua L.) within the area of 10×10 cm was counted at regular intervals at 3 spots per zone. […] Dose means the amount at a single application.

[5] = tested on: annual bluegrass (Poa annua L.); test: Test Example 1: number of ear emergence, poly-cup, single or mixed application; type: in vivo
Procedure: At the initial stage of the ear emergence of annual bluegrass (Poa annua L.) grown in a poly-cup of 11 cm×11 cm, benzyladenine (Beanine for painting; made by Rikengreen; containing 1% benzyladenine) and ethephon (Ethrel 10 soluble concentrate; Nissan Chemical Industries; containing 10% ethephon) respectively as a single active ingredient or a mixture of them were diluted in a predetermined amount of water and applied by atomization so as to be a dose as indicated in Table. The application was carried out using 100 mL/m^2 of the solution to which a spreader (Riken Sprayzer (registered trade mark); made by Rikengreen) was added so as to be 1/1,000 fold. Inspection was made on Days 21, 32 and 45 after treatment with the agents to count the number of ear emergence in the cup. After completion of each inspection, clipping was performed.

[6] = Day 46, Benzyladenine + Ethephon 2 + 0 mg a.i./m^2
[7] = Day 46, Benzyladenine + Ethephon 4 + 0 mg a.i./m^2

**Q.** For `c1ccc(CNc2ncnc3nc[nH]c23)cc1` [Benzyladenine, 6-benzylaminopurine], which “Ear (number of emerged ears in the cup)” value ([1]; Day 23, Benzyladenine + Ethephon 2 + 0 mg a.i./m^2) is on record?
**A.** 12

**Q.** What about the “Ear (number of emerged ears in the cup)” value ([1]; Day 23, Benzyladenine + Ethephon 4 + 0 mg a.i./m^2) of the same compound?
**A.** 2

**Q.** And the “Ear (number of emerged ears in the cup)” value [1, 6]?
**A.** 54

**Q.** And the “[Leaf] (number of leaves within 6 cm×6 cm)” value [1, 6]?
**A.** [105]

**Q.** And the “Ear (number of emerged ears in the cup)” value [1, 7]?
**A.** 55

**Q.** What about the “[Leaf] (number of leaves within 6 cm×6 cm)” value [1, 7] of the same compound?
**A.** [108]

**Q.** And the “Ear (number of emerged ears in the cup)” value ([1]; Day 53, Benzyladenine + Ethephon 2 + 0 mg a.i./m^2)?
**A.** 43

**Q.** What about the “Ear (number of emerged ears in the cup)” value ([1]; Day 53, Benzyladenine + Ethephon 4 + 0 mg a.i./m^2) of the same compound?
**A.** 48

**Q.** What about the “inhibition of ear emergence (summary in words)” value ([1]; Test Example 3) of the same compound?
**A.** strongly inhibits the ear emergence

**Q.** What about the “number of leaves (bud number) (summary in words)” value ([1]; Test Example 3) of the same compound?
**A.** increases the number of leaves

**Q.** What about the “Count of ear emergence” value ([2]; Day 25, Benzyladenine 0.67 mg a.i./m^2 applied Day 0, 6, 12) of the same compound?
**A.** 37

**Q.** And the “Count of ear emergence” value ([2]; Day 25, Benzyladenine 0.67 mg a.i./m^2 applied Day 6, 12)?
**A.** 34

**Q.** What about the “Count of ear emergence” value ([2]; Day 25, Benzyladenine 0.67 mg a.i./m^2 applied Day 12) of the same compound?
**A.** 37

**Q.** What about the “Count of ear emergence” value ([2]; Day 25, Benzyladenine 2 mg a.i./m^2 applied Day 0, 6, 12) of the same compound?
**A.** 20

**Q.** And the “Count of ear emergence” value ([2]; Day 25, Benzyladenine 2 mg a.i./m^2 applied Day 6, 12)?
**A.** 14

**Q.** What about the “Count of ear emergence” value ([2]; Day 25, Benzyladenine 2 mg a.i./m^2 applied Day 12) of the same compound?
**A.** 22

**Q.** What about the “Count of ear emergence” value ([2]; Day 33, Benzyladenine 0.67 mg a.i./m^2 applied Day 0, 6, 12) of the same compound?
**A.** 50

**Q.** And the “Count of ear emergence” value ([2]; Day 33, Benzyladenine 0.67 mg a.i./m^2 applied Day 6, 12)?
**A.** 24

**Q.** And the “Count of ear emergence” value ([2]; Day 33, Benzyladenine 0.67 mg a.i./m^2 applied Day 12)?
**A.** 28

**Q.** And the “Count of ear emergence” value ([2]; Day 33, Benzyladenine 2 mg a.i./m^2 applied Day 0, 6, 12)?
**A.** 26

**Q.** And the “Count of ear emergence” value ([2]; Day 33, Benzyladenine 2 mg a.i./m^2 applied Day 6, 12)?
**A.** 15

**Q.** And the “Count of ear emergence” value ([2]; Day 33, Benzyladenine 2 mg a.i./m^2 applied Day 12)?
**A.** 23

**Q.** And the “rooting of lawn grasses” value ([3]; Non-patent document 1)?
**A.** effect for accelerating the rooting of lawn grasses

**Q.** And the “growth of lawn grasses” value ([3]; Patent document 1)?
**A.** effect for accelerating the growth of lawn grasses

**Q.** And the “Ear (mean emerged ear number within 10×10 cm)” value ([4]; Day 22, Ethephon 0, Benzyladenine 4 mg a.i./m^2)?
**A.** 62.3

**Q.** What about the “Ear (mean emerged ear number within 10×10 cm)” value ([4]; Day 22, Ethephon 0, Benzyladenine 8 mg a.i./m^2) of the same compound?
**A.** 34.3

**Q.** What about the “Ear (mean emerged ear number within 10×10 cm)” value ([4]; Day 22, Ethephon 0, Benzyladenine 12 mg a.i./m^2) of the same compound?
**A.** 27.0

**Q.** What about the “Ear (mean emerged ear number within 10×10 cm)” value ([4]; Day 41, Ethephon 0, Benzyladenine 4 mg a.i./m^2) of the same compound?
**A.** 150.3

**Q.** And the “Ear (mean emerged ear number within 10×10 cm)” value ([4]; Day 41, Ethephon 0, Benzyladenine 8 mg a.i./m^2)?
**A.** 59.7

**Q.** And the “Ear (mean emerged ear number within 10×10 cm)” value ([4]; Day 41, Ethephon 0, Benzyladenine 12 mg a.i./m^2)?
**A.** 32.7

**Q.** And the “Ear (mean emerged ear number within 10×10 cm)” value ([4]; Day 61, Ethephon 0, Benzyladenine 4 mg a.i./m^2)?
**A.** 107.0

**Q.** And the “Ear (mean emerged ear number within 10×10 cm)” value ([4]; Day 61, Ethephon 0, Benzyladenine 8 mg a.i./m^2)?
**A.** 53.0

**Q.** What about the “Ear (mean emerged ear number within 10×10 cm)” value ([4]; Day 61, Ethephon 0, Benzyladenine 12 mg a.i./m^2) of the same compound?
**A.** 41.0

**Q.** And the “number of ear emergence in the cup” value ([5]; 21 Days after Application, Benzyladenine 2, Ethephon 0 mg a.i./m^2)?
**A.** 39

**Q.** What about the “number of ear emergence in the cup” value ([5]; 21 Days after Application, Benzyladenine 4, Ethephon 0 mg a.i./m^2) of the same compound?
**A.** 26

**Q.** And the “number of ear emergence in the cup” value ([5]; 21 Days after Application, Benzyladenine 8, Ethephon 0 mg a.i./m^2)?
**A.** 36

**Q.** What about the “number of ear emergence in the cup” value ([5]; 21 Days after Application, Benzyladenine 12, Ethephon 0 mg a.i./m^2) of the same compound?
**A.** 16

**Q.** What about the “number of ear emergence in the cup” value ([5]; 21 Days after Application, Benzyladenine 16, Ethephon 0 mg a.i./m^2) of the same compound?
**A.** 11

**Q.** And the “number of ear emergence in the cup” value ([5]; 32 Days after Application, Benzyladenine 2, Ethephon 0 mg a.i./m^2)?
**A.** 50

**Q.** What about the “number of ear emergence in the cup” value ([5]; 32 Days after Application, Benzyladenine 4, Ethephon 0 mg a.i./m^2) of the same compound?
**A.** 34

**Q.** And the “number of ear emergence in the cup” value ([5]; 32 Days after Application, Benzyladenine 8, Ethephon 0 mg a.i./m^2)?
**A.** 10

**Q.** And the “number of ear emergence in the cup” value ([5]; 32 Days after Application, Benzyladenine 12, Ethephon 0 mg a.i./m^2)?
**A.** 9

**Q.** What about the “number of ear emergence in the cup” value ([5]; 32 Days after Application, Benzyladenine 16, Ethephon 0 mg a.i./m^2) of the same compound?
**A.** 6

**Q.** What about the “number of ear emergence in the cup” value ([5]; 45 Days after Application, Benzyladenine 2, Ethephon 0 mg a.i./m^2) of the same compound?
**A.** 71

**Q.** And the “number of ear emergence in the cup” value ([5]; 45 Days after Application, Benzyladenine 4, Ethephon 0 mg a.i./m^2)?
**A.** 71

**Q.** What about the “number of ear emergence in the cup” value ([5]; 45 Days after Application, Benzyladenine 8, Ethephon 0 mg a.i./m^2) of the same compound?
**A.** 67

**Q.** What about the “number of ear emergence in the cup” value ([5]; 45 Days after Application, Benzyladenine 12, Ethephon 0 mg a.i./m^2) of the same compound?
**A.** 55

**Q.** And the “number of ear emergence in the cup” value ([5]; 45 Days after Application, Benzyladenine 16, Ethephon 0 mg a.i./m^2)?
**A.** 45

**Q.** And the “inhibition of ear emergence (summary in words)” value ([5]; Test Example 1, Tables 1-3)?
**A.** effective in inhibiting the ear emergence
